Assay results: US20220251079A1, “BENZO[B][1,8]NAPHTHYRIDINE ACETIC ACID DERIVATIVES AND METHODS OF USE” (STINGTHERA, INC., priority 2019, published 2022)

Columns and labels:
STING protein = target: T1, STING protein (Homo sapiens, UniProt Q86WV6, H232R); experiment: Cell based reporter assay of IRF activation (THP1-dual-KI R232, IRF luciferase); details: THP-1; read-out: THP1-dual-KI R232_IRF(Luciferase)_Activity Maximum measured (%)
T1 construct: host or cells: THP-1 dual reporter cells, TMEM173 modified from HAQ to R232 (THP1-dual-KI R232)
T1 sequence (Q86WV6 whole entry H232R): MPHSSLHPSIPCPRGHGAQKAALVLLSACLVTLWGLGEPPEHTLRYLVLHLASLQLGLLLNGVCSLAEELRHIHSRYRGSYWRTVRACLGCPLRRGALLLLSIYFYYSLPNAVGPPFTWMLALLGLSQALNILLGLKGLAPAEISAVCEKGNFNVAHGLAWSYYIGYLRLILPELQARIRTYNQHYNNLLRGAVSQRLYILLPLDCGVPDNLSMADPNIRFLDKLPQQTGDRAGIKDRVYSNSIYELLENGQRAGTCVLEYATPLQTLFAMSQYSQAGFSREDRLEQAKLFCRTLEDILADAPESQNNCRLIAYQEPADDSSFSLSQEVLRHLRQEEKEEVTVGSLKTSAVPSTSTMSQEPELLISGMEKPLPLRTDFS
From the text: Cell reporter assays were developed to measure the ability of compounds of the application to activate the STING protein and activate both IRF/IFN and the NFkB signaling pathways in the myeloid derived cell line THP-1, which is commercially available from several suppliers. Briefly, THP-1 monocytes were transfected and selected for stable integration of 2 reporter constructs. Clones incorporating stably integrated vectors were further selected by antibiotic resistance to blastocidin and zeocin. The reporter constructs included: (1) firefly luciferase reporter gene under the control of an ISG54 promoter fused to five interferon (IFN)-stimulated response elements to measure IRF transcription factor binding activity and (2) secreted embryonic alkaline phosphatase reporter gene under transcription control of an IFN-beta minimal promoter fused to 5 copies of the NFkB consensus transcriptional response element and 3 copies of the c-Rel binding site.
The resulting THP-1 cell line was further modified to incorporate 3 amino acid point mutations (H71R A230G Q293R). This modification of the native TMEM173 gene in THP-1 cells (HAQ) was designed to produce a cell reporter that expressed the most common allelic variant in the human population (THP-1 R232, available from InvivoGen). Alternatively, the TMEM173 gene was knocked out to provide a congenic control to counter-screen for compound activation that was independent of the STING protein (THP-1 STING KO).
Once cell lines were established, reporter assay protocols were developed and optimized to screen small molecule compounds for agonist activity. Assay optimization for efficacy and Z′ value included titration of the following parameters:
1. No pre-activation with PMA
2. […]cells/well in 96 well plate format
7. Cell Titer Glo reagent (Promega) following supermatant removal
9. 8 point, 2 fold, duplicate starting at 150 μM PP28T

[1] = target: T2, human STING protein (140-379) (Homo sapiens, UniProt Q86WV6, H232R); experiment: Radiometric filtration binding competition assay (WT_FBA_HIS-SUMO-hSWAT); details: read-out: WT-hSWAT IC50
T2 construct: 6XHIS-SUMO-hSTING (140-379); made in house; host or cells: BL-21(DE3) E. coli, pET vector
T2 sequence (Q86WV6 140-379 H232R): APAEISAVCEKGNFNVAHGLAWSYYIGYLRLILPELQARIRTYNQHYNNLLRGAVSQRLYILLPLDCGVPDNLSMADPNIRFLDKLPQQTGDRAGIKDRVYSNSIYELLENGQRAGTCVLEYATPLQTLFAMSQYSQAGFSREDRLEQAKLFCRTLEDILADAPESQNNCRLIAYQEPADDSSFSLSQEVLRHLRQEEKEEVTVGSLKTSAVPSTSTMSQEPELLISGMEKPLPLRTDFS
Method: A radiometric filtration binding competition assay was performed to quantify the binding affinity of compounds of the present application for the human or mouse STING protein, or associated HAQ human isoform. The competition format filtration binding assay detects the ability of small molecule compounds from binding to and inhibiting the subsequent binding of a tritiated [H3] […] The resulting dose response was fit by non-linear regression to determine an IC50 value, from which a Ki value for each compound was extrapolated.
Briefly, the recombinant C-terminal ligand binding domain of the human STING protein (140-379) or mouse STING protein (139-328) [0.5 μM] was incubated in the presence of a compound of the present application (8 point, 2 fold dilution starting at 300 μM) for 30 min or under control conditions. […] The resulting complexes were then filtered, dried, and scintillation fluid was added and the remaining radio signal was measured to determine the degree of compound ligand inhibition. This assay format was optimized for both the WT and HAQ isoforms of the human protein and the mouse orthologue protein.
Parameters optimized: • a. Form of protein: 6×HIS-SUMO tag or untagged • b. Concentration of target protein: Minimum concentration that achieved >80 max signal • c. Assay DMSO concentration: 10%-0.1% • d. Assay Buffer: Base (Tris or phosphate), Salt concentration, +/−Tween (0.1-2%) • e. […] Probe Concentration: Minimum concentration that achieved max assay window • g. Assay Format: Scintillation Proximity Bead or Filtration Binding Plate • h. Assay Plate: 384 vs 96 well format • i. Assay incubation times for successive incubation steps
WT-hSWAT: WT_FBA_HIS-SUMO-hSWAT IC50 (μM) (“WT”=Wild-type); and WT-mSWAT: MOUSE_FBA_HIS-SUMO-mSWAT C50 (μM) which is the mouse isoform of STING protein.

hSTING-R232 = target: T3, hSTING-R232 (Homo sapiens, UniProt Q86WV6, H232R); experiment: STING Differential Scanning Fluorimetry (DSF) assay, human; format: binding; details: human STING R232-WT, 5 μM protein
T3 construct: recombinant mouse or human STING protein (aa140-379); 6xHis-SUMO elsewhere) (cleaved yes); made in house
T3 sequence (Q86WV6 140-379 H232R): as above
Method: A STING DSF assay was performed to determine protein thermostability shift in response to small molecule ligand binding. A STING thermostability shift assay based on differential scanning fluorimetry was used to measure (1) the net shift in melting temperature (ΔTm)between the apo and ligand-bound states of the STING protein and (2) the concentration of the thermal denaturation transition (FC50) as a surrogate measure of binding affinity (Kd). Briefly, recombinant mouse or human STING protein (aa140-379) comprising the C-terminal binding domain (R232-WT) were purified by affinity chromatography and further processed to remove the purification tag, followed by gel filtration to achieve purity >95%. Protein in assay buffer was transferred to a 384 well plate and incubated with the hydrophobic fluorescent dye SYBR Orange. A temperature ramp was applied to the plate and the resulting dye fluorescence was plotted as a function of temperature. The first derivative of this function (dF/dT) was then used to extrapolate the melting temperature of the protein at various concentrations of compound and determine the thermal denaturation profile of a protein/compound complex.
2. 5 μM purified Target STING Protein
4. Buffer: 100 mM NaCl, 30 mM HEPES, pH 7.5
5. Thermal Ramp: 0.5° C./min
7. 11 point, 2 fold dilution, duplicate, 300 μM high concentrations

SMILES	Emax (STING protein) [%]	IC50 [1] [µM]	WT_DSF_hSWAT Tm Shift (° C.) (hSTING-R232)
CCOc1c(Cl)ccc2c(=O)c3ccc(C(C)=O)nc3n(CC(=O)O)c12 [Compound 31, sodium 2-(2-acetyl-8-chloro-9-ethoxy-5-oxobenzo[b][1,8]naphthyridin-10(5H)-yl)acetate]	> 50	100 to 300	C (“C” = 2-7° C.)
CSc1c(Cl)ccc2c(=O)c3ccc(C(C)=O)nc3n(CC(=O)O)c12 [Compound 32, sodium 2-(2-acetyl-8-chloro-9-(methylthio)-5-oxobenzo[b][1,8]naphthyridin-10(5H)-yl)acetate]	> 50	100 to 300	C (“C” = 2-7° C.)
CSc1c(Cl)ccc2c(=O)c3ccc(N(C)CCS(C)(=O)=O)nc3n(CC(=O)O)c12 [Compound 34, Sodium 2-{8-chloro-2-[(2-methanesulfonylethyl)(methyl)amino]-9-(methylsulfanyl)-5-oxobenzo[b]1,8-naphthyridin-10-yl}acetate]	25 to 50	20 to 100	D (“D” > 7° C.)
CSc1c(Cl)ccc2c(=O)c3ccc(N(C)CCS(=O)(=O)C(C)C)nc3n(CC(=O)O)c12 [Compound 35, sodium 2-(8-chloro-2-{methyl[2-(propane-2-sulfonyl)ethyl]amino}-9-(methylsulfanyl)-5-oxobenzo[b]1,8-naphthyridin-10-yl)acetate]	> 50	20 to 100	D (“D” > 7° C.)
CSc1c(Cl)ccc2c(=O)c3ccc(N(C)CC4CC(F)(F)C4)nc3n(CC(=O)O)c12 [Compound 36, Sodium 2-(8-chloro-2-(((3,3-difluorocyclobutyl)methyl)(methyl)amino)-9-(methylthio)-5-oxobenzo[b][1,8]naphthyridin-10(5H)-yl)acetate]	> 50	20 to 100	D (“D” > 7° C.)
CSc1c(Cl)ccc2c(=O)c3ccc(N(CC4CC4)CC4CC(F)(F)C4)nc3n(CC(=O)O)c12 [Compound 37, sodium 2-(8-chloro-2-((Cyclopropylmethyl)((3,3-difluorocyclobutyl)methyl)amino)-9-(methylthio)-5-oxobenzo[b][1,8]naphthyridin-10(5H)-yl)acetate]	> 50	20 to 100	D (“D” > 7° C.)
CSc1c(Cl)ccc2c(=O)c3ccc(N(CC4CC4)CC4COC4)nc3n(CC(=O)O)c12 [Compound 38, sodium 2-(8-chloro-2-((cyclopropylmethyl)(oxetan-3-ylmethyl)amino)-9-(methylthio)-5-oxobenzo[b][1,8]naphthyridin-10(5H)-yl)acetate]	> 50	20 to 100	D (“D” > 7° C.)
COC1CC(CN(C)c2ccc3c(=O)c4ccc(Cl)c(SC)c4n(CC(=O)O)c3n2)C1 (stereo not drawn) [Compound 39, Sodium 2-(8-chloro-2-(((3-methoxycyclobutyl)methyl)(methyl)amino)-9-(methylthio)-5-oxobenzo[b][1,8]naphthyridin-10(5H)-yl)acetate]	> 50	20 to 100	D (“D” > 7° C.)
COC1CC(CN(CC2CC2)c2ccc3c(=O)c4ccc(Cl)c(SC)c4n(CC(=O)O)c3n2)C1 (stereo not drawn) [Compound 40, sodium 2-(8-chloro-2-((cyclopropylmethyl)((3-methoxycyclobutyl)methyl)amino)-9-(methylthio)-5-oxobenzo[b][1,8]naphthyridin-10(5H)-yl)acetate]	> 50	20 to 100	D (“D” > 7° C.)

The next lines start with the values.

Emax (STING protein) [%]	IC50 [1] [µM]	WT_DSF_hSWAT Tm Shift (° C.) (hSTING-R232)	SMILES
> 50	20 to 100	D (“D” > 7° C.)	CSc1c(Cl)ccc2c(=O)c3ccc(C(C)(C)C#N)nc3n(CC(=O)O)c12 [Compound 24, sodium 2-(8-chloro-2-(2-cyanopropan-2-yl)-9-(methylthio)-5-oxobenzo[b][1,8]naphthyridin-10(5H)-yl)acetate]
> 50	20 to 100	D (“D” > 7° C.)	CCOc1c(Cl)ccc2c(=O)c3ccc(C(C)(C)C#N)nc3n(CC(=O)O)c12 [Compound 25, sodium 2-(8-chloro-2-(2-cyanopropan-2-yl)-9-ethoxy-5-oxobenzo[b][1,8]naphthyridin-10(5H)-yl)acetate]
> 50	< 20	D (“D” > 7° C.)	CN(C)c1c(Cl)ccc2c(=O)c3ccc(N(C)CC4CC(F)(F)C4)nc3n(CC(=O)O)c12 [Compound 26, sodium 2-(8-chloro-2-(((3,3-difluorocyclobutyl)methyl) (methyl)amino)-9-(dimethylamino)-5-oxobenzo[b][1,8]naphthyridin-10(5H)-yl)acetate]
> 50	20 to 100	D (“D” > 7° C.)	CSc1c(Cl)ccc2c(=O)c3ccc(N(C)CC4CCOCC4)nc3n(CC(=O)O)c12 [Compound 27, 2-(8-chloro-2-(methyl((tetrahydro-2H-pyran-4-yl)methyl)amino)-9-(methylthio)-5-oxobenzo[b][1,8]naphthyridin-10(5H)-yl)acetic acid]
> 50	< 20	D (“D” > 7° C.)	COCCN(c1ccc2c(=O)c3ccc(Cl)c(SC)c3n(CC(=O)O)c2n1)C1CC1 [Compound 28, sodium 2-(8-chloro-2-(cyclopropyl(2-methoxyethyl)amino)-9-(methylthio)-5-oxobenzo[b][1,8]naphthyridin-10(5H)-yl)acetate]
> 50	20 to 100	D (“D” > 7° C.)	CCOc1c(Cl)ccc2c(=O)c3ccc(N(CCOC)C4CC4)nc3n(CC(=O)O)c12 [Compound 29, sodium 2-(8-chloro-2-(cyclopropyl(2-methoxyethyl)amino)-9-ethoxy-5-oxobenzo[b][1,8]naphthyridin-10(5H)-yl)acetate]
> 50	< 20	D (“D” > 7° C.)	CCN(c1ccc2c(=O)c3ccc(Cl)c(SC)c3n(CC(=O)O)c2n1)C1COC1 [Compound 30, sodium 2-(8-chloro-2-(ethyl(oxetan-3-yl)amino)-9-(methylthio)-5-oxobenzo[b][1,8]naphthyridin-10(5H)-yl)acetate]
> 50	20 to 100	D (“D” > 7° C.)	CCOc1c(Cl)ccc2c(=O)c3ccc(N(C)CC4CCOCC4)nc3n(CC(=O)O)c12 [Compound 33, 2-(8-chloro-9-ethoxy-2-(methyl((tetrahydro-2H-pyran-4-yl)methyl)amino)-5-oxobenzo[b][1,8]naphthyridin-10(5H)-yl)acetic acid]
